Columns and labels:
[1] = test system: rabbit ventricular cardiomyocytes; experiment: Heat output from isolated cardiac myocytes challenged with a mitochondrial uncoupler; format: cell-based; details: CCCP 14 μM final concentration, n=5
Experimental: Cardiomyocytes. Isolated cells were obtained from adult rabbit left ventricle by collagenase digestion and kept in Base Krebs Solution, containing: 120 mM NaCl, 20 mM sodium N-hydroxyethylpiperazine-N′-2-ethane sulphonic acid (HEPES), 5.4 mM KCl, 0.52 mM NaH2PO4, 3.5 mM MgCl2.6 H2O, 20 mM taurine, 10 mM creatine, 11.1 mM glucose, 0.1% bovine serum albumin (BSA), pH 7.4. Cells were transferred to the sensor chips using a pipette (manual or robotic instrument) and placed onto the thermocouple junctions.
Experimental Set-up: The sensor chip used in the experiment (FIG. 1) was connected to the custom-made low noise preamplifier, which was positioned within 1 cm of the sensor chip in order to reduce attenuation of the voltage signal and minimise interference. The chip-holder was connected to the amplifier through a gold plated 2.54 mm (0.1 inch) pitch PCB edge connector (gold was used consistently in all contacts to avoid the creation of additional thermocouple junctions between the sensor output and the amplifier input). A transparent chamber enclosed the sensor from the surrounding air to eliminate rapid temperature changes. Water (37° C. or 25° C.), maintained at a constant temperature, was circulated through a 1 ml chamber integrated as part of the copper base plate. […]

single mouse liver cell = details: H2O2 initial concentration 14 mM, 700 pL, n=3
Description: The culture medium (pH 7.4) required to accommodate the cell occupied the full volume of the reaction vessel, and was considered to have the same thermodynamic properties as water. […] The heat conductance for a single cell system would be 80 μW/K with a heat capacity of 1 μJ/K.
Subsequently a mouse liver cell was positioned by a micromanipulator and immobilised on top of the temperature sensors in the reaction vessel with the aid of Cell-Tak tissue adhesive ensuring good thermal contact between the cell and sensor surface. H2O2 was then microinjected to yield an initial concentration of 14 mM after 200 seconds of the experiment commencing. The slightly altered pH value of the medium has minimal effect on the catalase activity. […] The short time constant for thermal equilibrium of the sensor (12 ms) compared to the long time duration of the measured signal (100 s), excludes a temperature difference in the injected solution as the cause of the measured temperature change.

brown adipocytes = experiment: Thermogenic response (heat output) of cultured brown adipocytes on the thermoelectric sensor; format: cell-based
Experimental: Brown adipocytes. Brown adipose tissue (BAT) was dissected from the interscapular, subscapular and the axillary regions of four 4-week-old male Naval Medical Research Institute (NMRI) mice. Pre-adipocytes were isolated and seeded in three 30 mm culture dishes and incubated in medium containing sodium bicarbonate (3.7 g/l) under 8% CO2 atmosphere for 6 days, after which time they were harvested. The culture medium based on DMEM with pH 7.4, was modified with 10% foetal calf serum, 20 nM insulin, 1 nM triiodothyronin (T3), 25 μg/ml Na-ascorbate, 4 mM glutamine, 10 mM HEPES, 50 IU/ml penicillin and 50 μg/ml streptomycin. Insulin was required for the expression of mitochondrial uncoupling protein (UCP) whereas the presence of T3 increased the thermogenic response due to more β-adrenergic receptors on the cells. All chemicals were supplied from Sigma-Aldrich and ICN Biomedicals Inc.
Experimental Set-up: The sensor chip used in the experiment (FIG. 1) was connected to the custom-made low noise preamplifier, which was positioned within 1 cm of the sensor chip in order to reduce attenuation of the voltage signal and minimise interference. The chip-holder was connected to the amplifier through a gold plated 2.54 mm (0.1 inch) pitch PCB edge connector (gold was used consistently in all contacts to avoid the creation of additional thermocouple junctions between the sensor output and the amplifier input). A transparent chamber enclosed the sensor from the surrounding air to eliminate rapid temperature changes. Water (37° C. or 25° C.), maintained at a constant temperature, was circulated through a 1 ml chamber integrated as part of the copper base plate. Both amplifier and sensor were positioned under a stereo-microscope for the manipulation and positioning of cells, injection of drugs and visual observation throughout the experiment,. The attachment of cells on the thermopile was enhanced by pre-treating the sensor surface with poly-L-lysine, adsorbed from a 0.01% solution in buffer.
The cell chamber was first covered with a 0.5 μL drop of culture medium with a subsequent addition of 15 μL liquid paraffin (mineral oil) in order to prevent evaporation of the medium. Re-suspended adipocytes (or cardiomyocytes) were positioned on top of the sensing junctions using a micropipette and micromanipulator (FIG. 3a, b, c). Excess medium was removed from the titre chamber leaving a total volume of 700 pL.
Measurements of heat output from cells were made with the cell chamber filled with 700 pL of culture medium and overlain with a layer of mineral oil to prevent evaporation. The device was held at a constant temperature of either 25° C. or 37° C. In the absence of cells there was no response from the thermopile to the injection of 10 pL of culture medium, nor to 10 pL culture medium containing a final concentration of 1.4 μM NE (see FIG. 4). […] The magnitude of the response was consistent with published values from populations of cells, where above-threshold levels of NE activation induced a ten-fold increase in oxygen consumption.

With `N#CC(C#N)=NNc1cccc(Cl)c1` [CCCP, carbonyl cyanide m-chlorophenyl hydrazone] the “heat production per cell” value [1] was 1.71 nW per cell and the “mean change in signal” value ([1]; within three minutes) was 136 μK.

For `OO` [H2O2, Hydrogen peroxide], the “generated power, maximum signal change” value (single mouse liver cell) was 38.2 nW.

`NC[C@H](O)c1ccc(O)c(O)c1` [NE, noradrenaline] was tested, and the “time to maximum value of heat production” value (brown adipocytes; 1.4 μM NE final concentration (saturated thermogenic response)) was no more than 2 min, the “duration for which heat output was sustained” value (brown adipocytes; NE-stimulated cells, 1.4 μM) was “at least 20 minutes” and the “average power output per cell” value (brown adipocytes; brown adipocytes, 1.4 μM NE final concentration, n=5) was 1.63 nW per cell. For the same compound, the “average power output, thermogenic response from groups of 10 NE-stimulated cells” value (brown adipocytes; groups of 10 brown adipocytes, 1.4 μM NE final concentration, 700 pL chamber, n=5) was 16.3 nW.

`C=C(C)[C@H]1Cc2c(ccc3c2O[C@@H]2COc4cc(OC)c(OC)cc4[C@@H]2C3=O)O1` [rotenone] was tested, and the “delay before temperature response began to return to basal level” value (brown adipocytes; NE-stimulated brown adipocytes, rotenone 14 μM final concentration) was 3 min and the “time for temperature response to return to basal level” value (brown adipocytes; NE-stimulated brown adipocytes, rotenone 14 μM final concentration, after the delay) was no more than 5 min.

Source: patent US20050076943A1, “Thermoelectric sensor” (priority 2001, published 2005)
